Activity calls are given as the source filed them. No cut-off for these calls is given here.
Experiments:
[1] = Inhibition of Wnt/beta-catenin signalling in Wnt3a stimulated human HEK293 cells assessed as reduction in luciferase activity incubated for 24 hrs by TOPFlash luciferase reporter assay; assay type: cell-based; details: HEK293, 24 h
[2] = target: Protein smoothened (Homo sapiens) (UniProt Q99835); experiment: Binding affinity to SMO (unknown origin) assessed as dissociation constant by SPR analysis
Sequence of Protein smoothened (Homo sapiens) (Q99835 whole entry, the tested form may be a part): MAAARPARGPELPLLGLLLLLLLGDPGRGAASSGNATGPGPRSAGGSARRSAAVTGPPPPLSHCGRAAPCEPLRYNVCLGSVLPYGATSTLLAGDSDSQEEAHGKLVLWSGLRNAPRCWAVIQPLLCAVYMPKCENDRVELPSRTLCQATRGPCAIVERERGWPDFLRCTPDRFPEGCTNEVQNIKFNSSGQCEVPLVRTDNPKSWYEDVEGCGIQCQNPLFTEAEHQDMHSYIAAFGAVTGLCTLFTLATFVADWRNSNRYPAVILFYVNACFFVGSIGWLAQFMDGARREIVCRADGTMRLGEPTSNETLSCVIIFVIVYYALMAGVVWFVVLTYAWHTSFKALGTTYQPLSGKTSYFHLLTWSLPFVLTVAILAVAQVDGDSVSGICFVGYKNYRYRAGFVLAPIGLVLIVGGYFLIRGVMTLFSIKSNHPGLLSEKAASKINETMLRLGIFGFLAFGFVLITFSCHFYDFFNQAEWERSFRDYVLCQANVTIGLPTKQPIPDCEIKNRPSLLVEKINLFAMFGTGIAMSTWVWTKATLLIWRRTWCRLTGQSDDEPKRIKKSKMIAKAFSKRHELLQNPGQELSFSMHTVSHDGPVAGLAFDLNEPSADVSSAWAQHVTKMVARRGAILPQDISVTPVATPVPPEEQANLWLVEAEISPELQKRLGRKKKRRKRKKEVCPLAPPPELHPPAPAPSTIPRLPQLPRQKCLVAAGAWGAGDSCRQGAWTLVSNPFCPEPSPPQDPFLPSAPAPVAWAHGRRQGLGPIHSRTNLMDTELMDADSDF

Frizzled-7 = Frizzled-7 (Homo sapiens, UniProt O75084); experiment: Antagonist activity at his-tagged FZD7 transmembrane domain (unknown origin) assessed as dissociation constant by SPR analysis

Structure (SMILES) | IC50 [1] | Activity [2] | Kd (Frizzled-7)
Cc1ccc(C(=O)Nc2ccc(SCC(=O)Nc3nc(-c4ccccc4)cs3)cc2)c(C)c1 | 40 nM |  | 
Cc1ccc(C(=O)Nc2ccc(SCC(=O)Nc3nc(-c4ccccc4)cs3)cc2)cc1 | 230 nM |  | 
O=C(CSc1ccc(NC(=O)c2ccc(F)cc2)cc1)Nc1nc(-c2ccccc2)cs1 | 1280 nM | inactive | 160 nM

From ChEMBL document CHEMBL5321296, “Structure-Based Ligand Discovery Targeting the Transmembrane Domain of Frizzled Receptor FZD7” (J Med Chem, 2023)
